# Literature values as cited in patent US7211580B2, “Compounds, compositions, and methods” (Cytokinetics, Incorporated, priority 2002, dated 2007).
# Tested on: A549 cells
# Conditions: concentration that decreases rate of cell growth by fifty percent
row,GI50,SMILES
1,1000 nM,O=c1[nH]cc(F)c(=O)[nH]1 [5-fluorouracil]
2,63 nM,COc1cccc2c1C(=O)c1c(O)c3c(c(O)c1C2=O)C[C@@](O)(C(=O)CO)C[C@@H]3O[C@H]1C[C@H](N)[C@H](O)[C@H](C)O1 [doxorubicin]
3,500000 nM,NC(=O)NO [hydroxyurea]
4,4 nM,CC(=O)O[C@H]1C(=O)[C@@]2(C)[C@H]([C@H](OC(=O)c3ccccc3)[C@]3(O)C[C@H](OC(=O)[C@H](O)[C@@H](NC(=O)c4ccccc4)c4ccccc4)C(C)=C1C3(C)C)[C@]1(OC(C)=O)CO[C@@H]1C[C@@H]2O [paclitaxel]
